Converted amounts (≈) assume the structure as drawn. Where two headings read alike, the source gives them in different places.
Key:
[1] = test system: P. aeruginosa (ATCC 27853); experiment: MIC assay (broth microdilution, CLSI), without light; assay type: cell-based; conditions: Pseudomonas aeruginosa, ATCC27853, light or radiation study; without light irradiation; read-out: MIC against P. aeruginosa (ATCC 27853)
Procedure: (§1) The MIC assays of TPA-1 were conducted according to the broth microdilution methods described in the Clinical and Laboratory Standards Institute (CLSI) standard. A single colony of S. aureus (ATCC 29213), methicillin-resistant S. aureus (BAA 41), or P. aeruginosa (ATCC 27853) on an LB agar plate was picked and suspended in Mueller–Hinton Broth (MHB). The bacterial culture was grown overnight at 37 °C. The next day, the bacteria culture was diluted 100 times in fresh MHB and grown to the mid log phase. Bacteria in the mid log phase were further diluted to 5 × 10^6 CFU/mL in cation-adjusted MHB (S. aureus) or MHB (P. aeruginosa). Ten μL of the diluted bacteria were added to a 96-well plate containing 90 μL of serial diluted TPA-1 in the corresponding medium. The plate was incubated overnight at 37 °C. The MICs of the TPA compounds were the concentrations at which no apparent bacteria were observed by the naked eye. Different concentrations of LTA were also added to examine the change in MIC values of TPA-1 against S. aureus. The experiments were conducted in triplicate.

[2] = test system: S. aureus (ATCC 29213); experiment: as above; assay type: cell-based; conditions: Staphylococcus aureus, ATCC29213, light or radiation study, read-out: MIC against S. aureus (ATCC 29213)
Procedure: as §1

[3] = test system: S. aureus; experiment: Resistance development assay on S. aureus; assay type: cell-based, Staphylococcus aureus
Procedure: The MICs for TPA-1 and norfloxacin against S. aureus were first determined by the above-mentioned method. The wells with 0.5 × MIC of compounds were transferred to 1 mL fresh MHB and incubated under darkness for 3–4 h at 37 °C. The bacteria were then used to conduct a MIC assay again. The experiments were repeated for 20 days. The fold changes in the MIC values of the compounds were recorded. The experiments were performed in duplicate.

[4] = Cytotoxicity (MTT) assay against HFF-1 cells; assay type: cell-based; conditions: human, no irradiation, read-out: 50% cytotoxicity concentration (CC50) against HFF-1 cells
Procedure: The cytotoxicity of TPA-1, TPA-0, and TPA-NC-1 against HFF-1 cells was evaluated using the 3-(4,5-dimethylthiazol-2-yl)-2,5-diphenyltetrazolium bromide (MTT) assay kit from ThermoFisher Scientific. In general, HFF-1 cells (MEM, 10% FBS, and 1% penicillin-streptomycin) were seeded in a 96-well plate with a density of 3000 cells/well overnight at 37 °C with 5% CO2. Then, the cells were treated with different concentrations of compounds for 24 h. MTT (10 μL, 5 mg/mL) was added to the medium, and the cells were further incubated for 3 h. The medium was then replaced by DMSO (100 μL). After gently shaking the plate for 30 s, the optical density of the solutions at 570 nm was measured by a BMG Labtech CLARIOstar microplate reader. The cell viability was calculated as (ODcompound – ODDMSO)/(ODmedium - ODDMSO) × 100% where ODcompound, ODmedium, and ODDMSO are the optical densities of the treated cell, nontreated cells, and DMSO at 570 nm, respectively. The experiment was conducted in triplicate. The CC50 values were calculated using GraphPad Prism 8.

[5] = Log P, 1-octanol/water partition; assay type: physicochemical; conditions: 1-octanol/water (1:1)
Procedure: The log P values of TPA compounds were obtained according to previously reported methods.[66] 1-octanol was first presaturated with water. Equal volume and concentration of TPA-NC-1, TPA-0, and TPA-1 were added to a 1-octanol/water (1:1) mixture and vortexed for 1 min. The mixture was then centrifuged for 5 min at 13,500 rpm. After that, the absorptions of the compound in the 1-octanol and water phases were measured. The concentrations of the compound in both phases were calculated by using the absorption calibration curve of the corresponding compound. Log P = log (concentration of the compound in 1-octanol/concentration of the compound in water).

[6] = Hemolysis of human erythrocytes; assay type: cell-based; conditions: 200 μM compound, 1 h, 37 °C
Procedure: (§2) The human erythrocyte concentrate was prepared according to the kit manual from the Biomaterial Hemolytic Assay Kit (Hemoscan). After the human erythrocytes had been washed and diluted with manufacture buffer, 100 μL of erythrocytes (10%) were added into 100 μL of various concentrations of compounds in PBS. 1% of Triton X (1%) was the positive control, while PBS was the negative control. The erythrocytes were then gently mixed with the TPA compounds and further incubated for an hour at 37 °C. After that, the erythrocytes were centrifuged (1000 rpm, 5 min), and 20 μL of supernatant was added to 180 μL of PBS in a 96-well plate. The optical density at 380, 415, and 450 nm was measured by a plate reader. The final OD value of the compounds was calculated as (2 × OD415) – (OD450 + OD380) where OD380, OD415, and OD450 are the optical density of the solution at 380, 415, and 450 nm, respectively. The hemolysis rates of the compounds were calculated as (ODcompound – ODPBS)/(ODTritonX – ODPBS) × 100% where ODcompound, ODPBS, and ODTritonX are the final OD values of the erythrocytes mixed with TPA compounds, PBS, and 1% Triton X, respectively. The experiment was performed in triplicate.

[7] = test system: human erythrocytes; experiment: Hemolysis of human erythrocytes; assay type: cell-based
Procedure: as §2

[8] = test system: methicillin-resistant S. aureus (BAA 41); experiment: MIC assay (broth microdilution, CLSI), without light; assay type: cell-based; conditions: Staphylococcus aureus, BAA41, light or radiation study, read-out: MIC against methicillin-resistant S. aureus (BAA 41)
Procedure: as §1

Row | Compound | logP [5] | CC50 at 24 h [4] [µM] | hemolysis at 1 h, 200 µM [6] [%] | HC50 [7] [µM] | other results
1 | C[C@@H](O)[C@H]1C(=O)N2C(C(=O)O)=C(S[C@@H]3CN[C@H](C(=O)N(C)C)C3)[C@H](C)[C@H]12 [Meropenem, reference compound] |  |  |  |  | MIC [1]: 2.5 µM (≈ 0.959 µg/mL); MIC ([2]; without light irradiation): 0.312 µM (≈ 0.12 µg/mL)
2 | CCn1cc(C(=O)O)c(=O)c2cc(F)c(N3CCNCC3)cc21 [norfloxacin, reference compound] |  |  |  |  | increase of MIC against S. aureus after treatment for 20 days ([3]; 20 days of passages at 0.5 × MIC): 1024 fold; MIC ([3]; Staphylococcus aureus, read-out: initial MIC against S. aureus in resistance development assay): 0.5 µM (≈ 0.16 µg/mL)
3 | CN[C@H](CC(C)C)C(=O)N[C@H]1C(=O)N[C@@H](CC(N)=O)C(=O)N[C@H]2C(=O)N[C@H]3C(=O)N[C@H](C(=O)N[C@H](C(=O)O)c4cc(O)cc(O)c4-c4cc3ccc4O)[C@H](O)c3ccc(c(Cl)c3)Oc3cc2cc(c3O[C@@H]2O[C@H](CO)[C@@H](O)[C@H](O)[C@H]2O[C@H]2C[C@](C)(N)[C@H](O)[C@H](C)O2)Oc2ccc(cc2Cl)[C@H]1O [Vancomycin, reference compound] |  |  |  |  | MIC [2]: 0.625 µM (≈ 0.906 µg/mL); MIC [8]: 0.625 µM (≈ 0.906 µg/mL)

Further lines, with some results ahead:

Row | logP [5] | Compound | CC50 at 24 h [4] [µM] | hemolysis at 1 h, 200 µM [6] [%] | HC50 [7] [µM] | other results
4 | -1.7 | CC[n+]1c(/C=C/c2ccc(-c3ccc(N(c4ccc(OCCC[N+](C)(C)C)cc4)c4ccc(OCCC[N+](C)(C)C)cc4)cc3)s2)sc2ccccc21.[Br-].[Br-].[Br-] [TPA-0] | 120 ± 20 | < 3 | > 200 | 
5 | 1.1 | CC[n+]1c(/C=C/c2ccc(-c3ccc(N(c4ccc(OC)cc4)c4ccc(OC)cc4)cc3)s2)sc2ccccc21.[Br-] [TPA-NC-1, reference compound] | 7.8 ± 0.7 | > 60 | < 200 | 
